Experimental data taken from patent US20230096766A1, “AMINO ACID HAVING FUNCTIONAL GROUP CAPABLE OF INTERMOLECULAR HYDROGEN BONDING, PEPTIDE COMPOUND CONTAINING SAME AND METHOD FOR PRODUCTION THEREOF” (Chugai Seiyaku Kabushiki Kaisha, priority 2018, published 2023).
*1 amine or outer side, *2 acyl side, *3 side chain or, on linkers, in order; H or OH if unused. Where a SMILES comes first, the peptide text is derived from it. Bridges are numbered along the chain shown (N, C = ends). [ ]: non-standard residue; d: D form. The star is where a group is joined. NMeAbu(3,3-F2-piperidino) = CN[C@@H](CCN1CCCC(F)(F)C1)C(=O)O; hPhe(3-OMe,4-CONHMe) = CNC(=O)c1ccc(CC[C@H](N)C(=O)O)cc1OC; X1 = COc1cc(C[C@H](N[*:1])C(=O)[*:2])ccc1C(=O)NO; NMePhe(3-Cl) = CN[C@@H](Cc1cccc(Cl)c1)C(=O)O; Tyr(3-F) = N[C@@H](Cc1ccc(O)c(F)c1)C(=O)O; Tyr(3-OMe) = COc1cc(C[C@H](N)C(=O)O)ccc1O; NMeW = CN[C@@H](Cc1c[nH]c2ccccc12)C(=O)O; NMeF = CN[C@@H](Cc1ccccc1)C(=O)O; NMeGABA = CN(CCCC(=O)[*:2])[*:1]; NMeI = CC[C@H](C)[C@H](NC)C(=O)O; Butyl(3-Me,3-OH) = CC(C)(O)CC*; CH2CH(OH)CF3 = OC(C*)C(F)(F)F; NMeL = CN[C@@H](CC(C)C)C(=O)O; Propyl(2R-OH) = C[C@@H](O)C*; NMeV = CN[C@H](C(=O)O)C(C)C; NMeAbu = CC[C@H](NC)C(=O)O; NMeA = CN[C@@H](C)C(=O)O; Piperidide = C1CCN(*)CC1; CH2CMe2OH = CC(C)(O)C*; X8 = C1COC[C@@H](C*)N1; NBuGly = CCCCNCC(=O)O; Sar = CNCC(=O)O; tBu = CC(C)(C)*

Test: in vitro
Conditions: human, Caco-2, Caco-2

Q: Which Papp does the source give for CC(C)C[C@@H]1NC(=O)[C@H](C)N(C)C(=O)C[C@@H](C(=O)N2CCCCC2)NC(=O)[C@H](C(C)C)N(C)C(=O)CN(C)C(=O)[C@H]([C@@H](C)O)NC(=O)[C@H](CCN2CCCC(F)(F)C2)N(C)C(=O)[C@H](Cc2ccccc2)N(C)C(=O)[C@H](CC(C)C)NC(=O)[C@H](Cc2ccccc2)N(C)C(=O)[C@H](CC(C)C)N(C)C1=O [pd391] ([NMeA]L[NMeL][NMeF]L[NMeF][NMeAbu(3,3-F2-piperidino)]T[Sar][NMeV]D-Piperidide; lactam N-11) here?
A: 2.4 ×10⁻⁶ cm/s

Same assay, conditions: human, Caco-2, Caco-2 (cm/sec)

Q: Which Papp does the source give for CC[C@H](C)[C@@H]1NC(=O)[C@H](CC(C)C)N(C)C(=O)CCCN(C)C(=O)C[C@@H](C(=O)N2CCCCC2)NC(=O)[C@H](CC(C)C)N(C)C(=O)[C@H](CC(C)C)N(C)C(=O)[C@H]([C@@H](C)O)NC(=O)[C@H](CC(C)C)N(C)C(=O)[C@H](CCc2ccc(C(=O)NC)c(OC)c2)NC(=O)[C@H](CC(C)C)N(C)C(=O)[C@H](Cc2ccccc2)N(C)C1=O [AP202] ([NMeGABA][NMeL]I[NMeF][NMeL][hPhe(3-OMe,4-CONHMe)][NMeL]T[NMeL][NMeL]D-Piperidide; lactam N-11) here?
A: 0.18 ×10⁻⁶ cm/s

Q: For CC(C)C[C@@H]1NC(=O)[C@H](CC(C)C)N(C)C(=O)[C@H](C)N(C)C(=O)[C@@H](C(C)C)NC(=O)C[C@@H](C(=O)N2CCCCC2)NC(=O)[C@H]([C@@H](C)O)NC(=O)[C@H](C)N(C)C(=O)[C@H](C)N(C)C(=O)[C@H](CC(C)C)N(C)C(=O)[C@H](Cc2ccc(O)c(F)c2)NC(=O)[C@H](Cc2ccccc2)N(C)C1=O [pd113] ([dV][NMeA][NMeL]L[NMeF][Tyr(3-F)][NMeL][NMeA][NMeA]TD-Piperidide; lactam N-11), which Papp is on record?
A: 0.029 ×10⁻⁶ cm/s

Q: Which Papp does the source give for CCCCN1CC(=O)N(C)[C@@H](Cc2ccccc2)C(=O)N(C)[C@@H](CC(C)C)C(=O)N[C@@H](CC(C)C)C(=O)N(C)[C@@H](CC(C)C)C(=O)N[C@H](C(=O)N2CCCCC2)CC(=O)N(C)CC(=O)N(C)[C@@H](CC)C(=O)N[C@@H](C(C)C)C(=O)N(C)[C@@H](CC)C(=O)N[C@@H](COC[C@@H]2COCCN2)C1=O [AP247] ([Sar][NMeAbu]V[NMeAbu]S(X8)[NBuGly][NMeF][NMeL]L[NMeL]D-Piperidide; lactam N-11) here?
A: 0.69 ×10⁻⁶ cm/s

Q: Which Papp does the source give for CC[C@H](C)[C@@H]1NC(=O)[C@H](CC(C)C)N(C)C(=O)[C@H](COC[C@@H](C)O)NC(=O)[C@H](Cc2ccccc2)N(C)C(=O)CN(C)C(=O)C[C@@H](C(=O)N2CCCCC2)NC(=O)[C@H](CC(C)C)N(C)C(=O)[C@H](COC(C)(C)C)NC(=O)[C@H](CC(C)C)N(C)C(=O)[C@H](Cc2ccccc2)N(C)C(=O)CN(C)C1=O [AP88] ([Sar][NMeF]S(Propyl(2R-OH))[NMeL]I[Sar][NMeF][NMeL]S(tBu)[NMeL]D-Piperidide; lactam N-11) here?
A: 3.3 ×10⁻⁶ cm/s

Q: Which Papp does the source give for CC[C@H](C)[C@H]1C(=O)N[C@@H]([C@@H](C)O)C(=O)N(C)CC(=O)N(C)[C@@H](CC(C)C)C(=O)N[C@H](C(=O)N2CCCCC2)CC(=O)N(C)[C@@H](CC(C)C)C(=O)N[C@@H](CC(C)C)C(=O)N(C)[C@@H](CC(C)C)C(=O)N(C)[C@@H](Cc2c[nH]c3ccccc23)C(=O)N[C@@H](CC(C)C)C(=O)N(C)[C@@H](Cc2ccccc2)C(=O)N1C [pd111] ([NMeL]L[NMeL][NMeW]L[NMeF][NMeI]T[Sar][NMeL]D-Piperidide; lactam N-11) here?
A: 0.16 ×10⁻⁶ cm/s

Q: For CCCCN1CC(=O)N(C)[C@@H](Cc2ccccc2)C(=O)N(C)[C@@H](CC(C)C)C(=O)N[C@@H](CC(C)C)C(=O)N(C)[C@@H](CC(C)C)C(=O)N[C@H](C(=O)N2CCCCC2)CC(=O)N(C)CC(=O)N(C)[C@@H](CC(C)C)C(=O)N[C@@H](Cc2ccc(O)c(OC)c2)C(=O)N(C)[C@@H](CC)C(=O)N[C@@H]([C@@H](C)O)C1=O [Compound E07] ([Sar][NMeL][Tyr(3-OMe)][NMeAbu]T[NBuGly][NMeF][NMeL]L[NMeL]D-Piperidide; lactam N-11), which Papp is on record?
A: 1.1 ×10⁻⁶ cm/s

Q: Which Papp does the source give for CC(C)C[C@@H]1NC(=O)[C@H](Cc2ccccc2)N(C)C(=O)[C@@H](C(C)C)NC(=O)C[C@@H](C(=O)N2CCCCC2)NC(=O)[C@H](CC(C)C)N(C)C(=O)[C@H](Cc2cccc(Cl)c2)N(C)C(=O)[C@H](COCC(C)(C)O)NC(=O)[C@H](CC(C)C)N(C)C(=O)CN(C)C(=O)[C@H]([C@@H](C)O)NC(=O)[C@H](CC(C)C)N(C)C1=O [AP02] ([dV][NMeF]L[NMeL]T[Sar][NMeL]S(CH2CMe2OH)[NMePhe(3-Cl)][NMeL]D-Piperidide; lactam N-11) here?
A: 1.3 ×10⁻⁶ cm/s

Q: With CC[C@H]1C(=O)N[C@@H](CC(C)C)C(=O)N(C)[C@@H](CC(C)C)C(=O)N(C)[C@@H](Cc2ccccc2)C(=O)N[C@@H](Cc2ccc(O)c(OC)c2)C(=O)N(C)[C@@H](CC(C)C)C(=O)N(C)[C@@H](CC(C)C)C(=O)N[C@@H]([C@@H](C)O)C(=O)N(C)CC(=O)N(C)[C@@H](CC(C)C)C(=O)N[C@H](C(=O)N2CCCCC2)CC(=O)N1C [Compound E05] ([NMeAbu]L[NMeL][NMeF][Tyr(3-OMe)][NMeL][NMeL]T[Sar][NMeL]D-Piperidide; lactam N-11) as the compound, how does the Papp read?
A: 1.8 ×10⁻⁶ cm/s

Q: Which Papp does the source give for CCCCN1CC(=O)N(C)[C@@H](CC(C)C)C(=O)N[C@@H](Cc2ccc(C(=O)NO)c(OC)c2)C(=O)N(C)[C@@H](CC(C)C)C(=O)N(C)[C@@H](CC(C)C)C(=O)N[C@H](C(=O)N2CCCCC2)CC(=O)N[C@H](CC(C)C)C(=O)N(C)[C@@H](Cc2ccccc2)C(=O)N[C@@H](C(C)C)C(=O)N(C)[C@@H](CC(C)C)C(=O)N[C@@H]([C@@H](C)O)C1=O [AP257] ([dL][NMeF]V[NMeL]T[NBuGly][NMeL][X1][NMeL][NMeL]D-Piperidide; lactam N-11) here?
A: 0.03 ×10⁻⁶ cm/s

Q: With CC[C@H](C)[C@@H]1NC(=O)[C@H](C(C)C)N(C)C(=O)CCCN(C)C(=O)C[C@@H](C(=O)N2CCCCC2)NC(=O)[C@H](CC(C)C)N(C)C(=O)[C@H](CC(C)C)N(C)C(=O)[C@H]([C@@H](C)O)NC(=O)[C@H](CC(C)C)N(C)C(=O)[C@H](COCCC(C)(C)O)NC(=O)[C@H](Cc2cccc(Cl)c2)N(C)C(=O)[C@H](Cc2ccccc2)N(C)C1=O [AP54] ([NMeGABA][NMeV]I[NMeF][NMePhe(3-Cl)]S(Butyl(3-Me,3-OH))[NMeL]T[NMeL][NMeL]D-Piperidide; lactam N-11) as the compound, how does the Papp read?
A: 1.4 ×10⁻⁶ cm/s

Q: With CC(C)C[C@@H]1NC(=O)[C@H](Cc2ccccc2)N(C)C(=O)[C@@H]2CCCN2C(=O)C[C@@H](C(=O)N2CCCCC2)NC(=O)[C@H](Cc2ccccc2)N(C)C(=O)[C@H](Cc2ccccc2)N(C)C(=O)[C@H](COC(C)(C)C)NC(=O)[C@H](CC(C)C)N(C)C(=O)CN(C)C(=O)[C@H]([C@@H](C)O)NC(=O)[C@H](CC(C)C)N(C)C1=O [pd203] (P[NMeF]L[NMeL]T[Sar][NMeL]S(tBu)[NMeF][NMeF]D-Piperidide; lactam N-11) as the compound, how does the Papp read?
A: 2.1 ×10⁻⁶ cm/s

Same assay, conditions: human, Caco-2, Caco-2 (membrane permeability)

Q: With CC(C)C[C@H]1C(=O)N[C@@H](COCC(O)C(F)(F)F)C(=O)N(C)[C@@H](Cc2cccc(Cl)c2)C(=O)N(C)[C@@H](Cc2ccccc2)C(=O)N[C@@H](COC(C)(C)C)C(=O)N(C)[C@@H](CC(C)C)C(=O)N[C@@H]([C@@H](C)O)C(=O)N(C)[C@@H](CC(C)C)C(=O)N(C)[C@@H](CC(C)C)C(=O)N[C@H](C(=O)N2CCCCC2)CC(=O)N(C)CCCC(=O)N1C (stereo partly drawn) [Compound C02] ([NMeGABA][NMeL]S(CH2CH(OH)CF3)[NMePhe(3-Cl)][NMeF]S(tBu)[NMeL]T[NMeL][NMeL]D-Piperidide; lactam N-11) as the compound, how does the Papp read?
A: 0.19 ×10⁻⁶ cm/s
